# Several values for one entry are separate records, joined by “and”; a condition that tells them apart may be missing. Equal entries are not always repeated. Where two headings read alike, the source gives them in different places.
# Tests used:
# [1] = test system: pancreatic ductal adenocarcinoma 03
# Source text: Pancreatic ductal adenocarcinoma-03, B16-melanoma, mammary adenocarcinoma-16/C/Adr, mammary adenocarcinoma-17/Adr, colon adenocarcinoma-26, and mammary adenocarcinoma-16/C were used in the studies.
# (§1) Tumors were maintained in the mouse strain of origin C57B1/6 (for Panc03, B16), Balb/c (for Colon 26) and C3H (for the mammary tumors). Tumors were transplanted into the appropriate F1 hybrid (BDF1=C57B1/6 female X DBA/2 male) or the strain of origin for the chemotherapy trials. Individual mouse body weights for each experiment were within 5 grams, and all mice were over 17 grams at the start of therapy. The mice were supplied food and water ad libitum.
# (§2) Animals were pooled, implanted subcutaneously with 30 to 60 mg tumor fragments by a 12 gauge trocar on day 0, and again pooled before unselective distribution to the various treatment and control groups. For early stage treatment, chemotherapy was started within 1 to 3 days after tumor implantation while the number of cells was relatively small (10^7 to 10^8 cells). For upstaged or advanced staged trials, the tumors were allowed to grow for five or more days before treatment was started. Tumors were measured with a caliper twice weekly. […] Tumor weights are estimated from two-dimensional measurements:
# (§3) Tumor weight (in mg)=(a×b^2)/2, where a and b are the tumor length and width in (mm), respectively.
# (§4) The following quantitative endpoints were used to assess antitumor activity: • a) Tumor growth delay (T-C value), where T is the median time (in days) required for the treatment group tumors to reach a predetermined size (e.g., 1000 mg), and C is the median time (in days) for the control group tumors to reach the same size. Tumor-free survivors are excluded from these calculations (cures are tabulated separately). This value is an important criterion of antitumor effectiveness because it allows the quantification of tumor cell kill. • b) Calculation of tumor cell kill for subcutaneously (SC) growing tumors, the log10 cell kill was calculated from the following formula:
# (§5) The conversion of the T-C values to log10 cell kill is possible because the Td of tumors regrowing post treatment (Rx) approximates the Td values of the tumors in untreated control mice.
# In selected cases, both for historic in vivo evaluation data as well as data presented here, it is of value to compare log kill numbers from trials of markedly different testing schedules. […] It should be noted that an activity rating of +++ to ++++ is needed to effect partial regression (PR) or complete regression (CR) of 100 to 300 mg size masses of most transplanted solid tumors of mice. Thus, an activity rating of + or ++ would not be scored as active by usual clinical criteria. A PR is a reduction in tumor mass to less than 50% of pretreatment size. A CR is a reduction in tumor mass to below palpable size (i.e., reduction to zero detectable mass).
# (§6) The T/C value in percent is an indication of antitumor effectiveness: A T/C=0% means no tumor growth. […] A T/C value <10% is considered to indicate highly significant antitumor activity, and is the level used by NCI to justify a clinical trial if toxicity, formulation, and certain other requirements are met (termed DN-2 level activity).
# Female BDFl mice (obtained from NCI-Raleigh) (date of birth (hereinafter D.O.B.) Mar. 27, 2000; date of arrival (hereinafter D.O.A.) Apr. 9, 2000) were implanted (tumor implant date (hereinafter D.O.T.) Mar. 17, 2000) with pancreatic ductal adenocarcinoma 03 tumor, divided into treatment and control groups.
# [2] = test system: mammary adenocarcinoma-16/C/Adr; assay: Test C: evaluation against early stage mammary adenocarcinoma-16/C/Adr; type: in vivo
# Source text: Early stage mammary adenocarcinoma-16/C/Adr is a p-glycoprotein negative multidrug resistant tumor. C3H female mice were obtained from NCI-Kingston-CRL (D.O.B. Apr. 3, 2000; D.O.A. May 16, 2000). […] The control animals (Cage #1) received no treatment.
# colon carcinoma 26 = test system: colon carcinoma 26
# Protocol: In this trial the R-enantiomers of XK-469, compound 22c, and compound 22b were compared against advanced staged colon carcinoma 26 in female Balb/c mice. […] Cage #2 was 22b at 400 mg/kg and Cage #4 was 22c at 400 mg/kg.
# The XK469-R, 22b, and 22c compound doses were all prepared the same, using 3% ethanol, 1% POE-80, and 0.5% sodium bicarbonate. The injection volume was 0.2 mu/mouse IV. […] The mice were Balb/c female mice: DOB Feb. 12, 2001; DOA Mar. 27, 2001; DOT Sep. 8, 2001, with an average body weight of 24.7 grams at the start of Rx administration. The tumor was Colon Carcinoma-26 passage 141; date of implant Sep. 8, 2001, and implanted at 30 to 60 mg fragments bilaterally SC. All tumors were 63 to 171 mg on day 6, the day of first Rx.
# B16 melanoma [3] = test system: B16 melanoma
# Source text: as §1, §2, §3, §4, §5
# It should be noted that an activity rating of +++ to ++++ is needed to effect partial regression (PR) or complete regression (CR) of 100 to 300 mg size masses of most transplanted solid tumors of mice. Thus, an activity rating of + or ++ would not be scored as active by usual clinical criteria. A PR is a reduction in tumor mass to less than 50% of pretreatment size. A CR is a reduction in tumor mass to below palpable size (i.e., reduction to zero detectable mass).
# as §6
# The mice were divided into a control group and three experimental groups. The control group (Cage #1) received no treatment.
# A −20% body weight loss is considered excessively toxic by N.C.I. standards.
# [4] = test system: pancreatic ductal adenocarcinoma 03; conditions: historic; cited from earlier work
# [5] = test system: mammary adenocarcinoma-16/C; assay: Test F: R-enantiomers of 22b and 22c against early staged mammary adenocarcinoma-16/C; type: in vivo, C3H female mice; conditions: Cage 11, IV 7.5 mg/kg/inj days 1,5, total 15 mg/kg
# Protocol: C3H female mice were obtained from N.C.I. (D.O.B. was […]; D.O.A. was Jan. 27, 2001). The mice weighed an average of 19.2 gm. Mice were implanted SC with mammary adenocarcinoma-16/C passage-170, a fast growing, highly invasive, highly metastatic tumor (D.O.T. was Mar. 8, 2001; Td was 1.2 days).
# The R-enantiomers of both Compound 22c and Compound 22b were each suspended in 3% ethanol, 1% POE-80, 0.5% sodium bicarbonate (by volume) to effect solution, P.B.S. was then added and the pH adjusted to 7 with HCl. Adriamycin (ADRIA; lot number 20338c) was suspended in dH2O to effect solution and the pH was adjusted to 6.0. Mice were administered 0.2 ml per IV injection.
# B16 melanoma [6] = conditions: historic, B16 melanoma implanted subcutaneously (SC); cited from earlier work
# [7] = test system: pancreatic ductal adenocarcinoma-03; type: in vivo; conditions: Cg 8 in table (Cage 13 in text); IV 7.5 mg/kg/inj days 6,14; total 15 mg/kg
# Protocol: BDF1 female mice were obtained from N.C.I., CRL-Ral (D.O.B. was Feb. 26, 2001; D.O.A. was Mar. 10, 2001). The mice weighed an average of 22.5 gm. Mice were implanted SC with pancreatic ductal adenocarcinoma-03 passage 143. (D.O.T. was May 29, 2001; Td was 2.3 days).
# The R-enantiomer of compound 22c was suspended in 3% ethanol, 1% POE-80, 0.25% sodium bicarbonate (by volume) to effect solution. dH2O was then added, and the pH adjusted to 7 with HCl. […] The R-enantiomer of compound 22b was suspended in 3% ethanol, 1% POE-80, 0.5% sodium-bicarbonate (by volume) to effect solution. Then, dH2O was added, and the pH adjusted to 7.5 with HCl. […] Adriamycin (source ADRIA; lot 2033BC) was suspended in dH2O to effect solution, and the pH was 6.0.
# Treatment began six days following implant, at which time the tumors were palpable size (126 mg median). The duration of treatment was prolonged (18 days) in order to obtain a clear separation in efficacy between the compounds.
# [8] = Cage 7, IV daily days 3-9, 7 inj, total 336 mg/kg
# [9] = Cage 2, IV 42 mg/kg twice daily days 1-3 and 11-13, total 504 mg/kg
# [10] = Cage 3, IV 27 mg/kg twice daily days 1-3 and 11-13, total 324 mg/kg
# [11] = Cg 3, IV 50 mg/kg/inj days 6,8,10,13,15, total 250 mg/kg
# [12] = Cage 2, IV 40 mg/kg/inj days 1-4, 8 inj, total 320 mg/kg
# [13] = Cage 3, IV 50 mg/kg/inj daily days 1-5, total 250 mg/kg
# [14] = Cage 4, IV 30 mg/kg/inj daily days 1-6, total 180 mg/kg
structure (smiles),measurement,setting,value
COc1ccc2ccc(Oc3ccc(OC(C)C(=O)O)cc3)nc2c1 (stereo not drawn),melting point,,164 to 166 °C
"CC(Oc1ccc(Oc2ccc3ccc(Cl)cc3n2)cc1)C(=O)O (racemic) [Compound 22b, 2-[4-(7-chloroquinolin-2-yloxy)phenoxy]propanoic acid]",% T/C mass,[1]; [8],0%
same,Activity Rating,[1]; [8],+++ (2.0-2.8)
same,Drug Deaths,[1]; [8],0/5
same,Growth Delay In Days,[1]; [8],17.5 days
same,Log Kill,[1]; [8],2.6
same,Median Tumor Mass on Day 14 (Range),[1]; [8],0 (0-126) mg
same,Tumor Free day-37,[1]; [8],0/5
same,% Body Wt Loss at Nadir,"[1]; mouse, in vivo",−8.9%
same,Day of Nadir,"[1]; mouse, in vivo",11 days
same,% Body Wt Loss at Nadir,[2]; [9],−15%
same,% T/C mass,[2]; [9],0%
same,Activity Rating,[2]; [9],+++ (2.0-2.8)
same,Day of Nadir,[2]; [9],7 days
same,Day of full recovery of body weight,[2]; [9],12 days
same,Drug Deaths,[2]; [9],0/6
same,Growth Delay,[2]; [9],8.0 days
same,Log Kill,[2]; [9],2.0
same,Median Tumor Mass on Day 11 (Range),[2]; [9],0 (0-308) mg
same,Tumor Free day-18,[2]; [9],0/6
same,Neuromuscular toxicity,"[2]; Cage 2, IV 42 mg/kg twice daily, lasting about ten minutes post injection",modest neuromuscular gait disturbance
same,Neuromuscular toxicity,"[2]; Cage 3, IV 27 mg/kg twice daily",insignificant gait disturbance
same,% Body Wt Loss at Nadir,[2]; [10],−1.1%
same,% T/C mass,[2]; [10],53%
same,Activity Rating,[2]; [10],inactive
same,Day of Nadir,[2]; [10],7 days
same,Day of full recovery of body weight,[2]; [10],8 days
same,Drug Deaths,[2]; [10],0/6
same,Growth Delay,[2]; [10],2.25 days
same,Log Kill,[2]; [10],0.6
same,Median Tumor Mass on Day 11 (Range),[2]; [10],741 (516-1199) mg
same,Tumor Free day-18,[2]; [10],0/6
same,Toxicity of dose group,"colon carcinoma 26; Cage 2, 400 mg/kg, omitted from Table 8",toxic
same,Activity Rating,colon carcinoma 26; [11],++ (1.3-1.9)
same,CR's,colon carcinoma 26; [11],1/6
same,Log Kill,colon carcinoma 26; [11],1.4
same,% T/C mass,B16 melanoma [3]; [12],0%
same,Cause of death,B16 melanoma [3]; [12],marrow toxicity
same,Drug Deaths,B16 melanoma [3]; [12],1/5
same,Growth Delay,B16 melanoma [3]; [12],12.5 days
same,Log Kill,B16 melanoma [3]; [12],3.8
same,Median Tumor Mass on Day 9 (Range),B16 melanoma [3]; [12],0 (all zeros) mg
same,Tumor Free day-24,B16 melanoma [3]; [12],0.5
same,Activity Rating,"B16 melanoma [3]; Cage 2, IV 40 mg/kg/inj days 1-4, 8 inj, total 320 mg/kg, listed as 22b (racemic)",toxic
same,% T/C mass,B16 melanoma [3]; [13],0%
same,Activity Rating,B16 melanoma [3]; [13],+++ (2.0-2.8)
same,Drug Deaths,B16 melanoma [3]; [13],0/5
same,Growth Delay,B16 melanoma [3]; [13],8.5 days
same,Log Kill,B16 melanoma [3]; [13],2.6
same,Median Tumor Mass on Day 9 (Range),B16 melanoma [3]; [13],0 (all zeros) mg
same,Tumor Free day-24,B16 melanoma [3]; [13],0/5
same,% T/C mass,B16 melanoma [3]; [14],15.6%
same,Activity Rating,B16 melanoma [3]; [14],++ (1.3-1.9)
same,Drug Deaths,B16 melanoma [3]; [14],0/5
same,Growth Delay,B16 melanoma [3]; [14],6.0 days
same,Log Kill,B16 melanoma [3]; [14],1.8
same,Median Tumor Mass on Day 9 (Range),B16 melanoma [3]; [14],221 (63-334) mg
same,Tumor Free day-24,B16 melanoma [3]; [14],0/5
same,Day of Nadir,"B16 melanoma [3]; mouse, in vivo",8 days
same,Day of full recovery of body weight,"B16 melanoma [3]; mouse, in vivo",11 days and 9 days
same,Duration of neuromuscular toxicity post injection,"B16 melanoma [3]; mouse, in vivo",over 20 minutes
same,Neuromuscular toxicity (slowing of nerve conduction),"B16 melanoma [3]; mouse, in vivo",substantial post injection neuromuscular toxicity and mild
"COc1cccc2c1C(=O)c1c(O)c3c(c(O)c1C2=O)C[C@@](O)(C(=O)CO)C[C@@H]3O[C@H]1C[C@H](N)[C@H](O)[C@H](C)O1 [Adriamycin, reference compound]",activity rating (sensitivity of the tumor to standard agents),[4],+++ (2.0-2.8)
same,% Body Wt Loss at Nadir,[5],0%
same,% T/C mass,[5],0%
same,Day of Nadir,[5],8 days
same,Drug Deaths,[5],1/5
same,Growth Delay,[5],12.0 days
same,Log Kill,[5],3.6
same,Median Tumor Mass on Day 10 (Range),[5],0 mg
same,Median time for tumors to 1000 mg (range),[5],21.5 (17-27.5) days
same,Tumor Free day-155,[5],0/5
same,% Body Wt Loss at Nadir,[5]; listed as adriamycin,no body weight loss
same,% T/C mass,[5]; listed as adriamycin,0%
same,Activity Rating,[5]; listed as adriamycin,++++ (>2.8)
same,Drug Deaths,[5]; listed as adriamycin,one delayed drug-death
same,activity rating (responsiveness of the tumor to standard agents),B16 melanoma [6],+or +/−
same,% Body Wt change between day 6 and day 24,[7],−5.4%
same,% T/C mass,[7],17.0%
same,Activity Rating,[7],+++ (2.0-2.8)
same,CR's,[7],1/5
same,Drug Deaths,[7],0/5
same,Growth Delay,[7],17.5 days
same,Log Kill,[7],2.3
same,Median Tumor Mass on Day 24 (Range),[7],383 mg
same,"Median time for tumors to 1,000 mg (range)",[7],34 days
same,PR's,[7],1/5
same,Tumor Free day-157,[7],0/5
O=NN(CCCl)C(=O)NCCCl [BCNU],activity rating (responsiveness of the tumor to standard agents),B16 melanoma [6],++++ (>2.8)
"O=c1[nH]cc(F)c(=O)[nH]1 [Compound 5-FU, 5-FU]",activity rating (sensitivity of the tumor to standard agents),[4],+ (0.7-1.2)
CC[C@@]1(O)C(=O)OCc2c1cc1n(c2=O)Cc2cc3ccccc3nc2-1 [camptothecin],activity rating (responsiveness of the tumor to standard agents),B16 melanoma [6],+or +/−
CC(=O)O[C@H]1C(=O)[C@@]2(C)[C@H]([C@H](OC(=O)c3ccccc3)[C@]3(O)C[C@H](OC(=O)[C@H](O)[C@@H](NC(=O)c4ccccc4)c4ccccc4)C(C)=C1C3(C)C)[C@]1(OC(C)=O)CO[C@@H]1C[C@@H]2O [taxol],activity rating (sensitivity of the tumor to standard agents),[4],++++ (>2.8)
same,activity rating (responsiveness of the tumor to standard agents),B16 melanoma [6],+or +/−

# — patent US7507749B2, “Antitumor agents” (priority 2001, dated 2009)
